# From patent US8802597B2, “Herbicidal pyrimidines” (E I du Pont de Nemours and Company, priority 2003, dated 2014)
# How the values were obtained:
# Assay in all cases: Test C pre/postemergence
# Format in all cases: in vivo
# [1] = system: Surinam grass (Brachiaria decumbens); settings: for Plant response rating (scale of 0 to 100), Surinam Grass / Surinam Grass plant response rating: Postemergence; for Surinam Grass plant response rating: scale 0 to 100 (0 no effect, 100 complete control); for Plant response rating, Surinam Grass: Preemergence
# Outline: (§1)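 Test compounds, formulated in a non-phytotoxic solvent mix with surfactant, were applied to freshly planted seeds and, at the same time, to emerged plants at 1- to 4-leaf stage (2 to 18 cm). After 12 to 14 days in the greenhouse, response was scored visually versus controls, 0 = no effect, 100 = complete control.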
# [2] = system: bermudagrass (Cynodon dactylon)
# Outline: as §1
# [3] = system: common (oilseed) sunflower (Helianthus annuus); settings: Preemergence
# Outline: as §1
# [4] = system: crabgrass (Digitaria sanguinalis); settings: for Plant response rating (scale of 0 to 100), Crabgrass / Crabgrass plant response rating: Postemergence; for Crabgrass plant response rating: scale 0 to 100 (0 no effect, 100 complete control); for Plant response rating, Crabgrass: Preemergence
# Outline: as §1
# [5] = system: giant foxtail (Setaria faberii); settings: for Plant response rating (scale of 0 to 100), Foxtail, Giant / Foxtail, Giant plant response rating: Postemergence; for Foxtail, Giant plant response rating: scale 0 to 100 (0 no effect, 100 complete control); for Plant response rating, Foxtail, Giant: Preemergence
# Outline: as §1
# [6] = system: goosegrass (Eleusine indica); settings: for Plant response rating (scale of 0 to 100), Goosegrass / Goosegrass plant response rating: Postemergence; for Goosegrass plant response rating: scale 0 to 100 (0 no effect, 100 complete control); for Plant response rating, Goosegrass: Preemergence
# Outline: as §1
# [7] = system: johnsongrass (Sorghum halepense); settings: for Plant response rating (scale of 0 to 100), Johnsongrass / Johnsongrass plant response rating: Postemergence; for Johnsongrass plant response rating: scale 0 to 100 (0 no effect, 100 complete control); for Plant response rating, Johnsongrass: Preemergence
# Outline: as §1
# kochia (Kochia scoparia) = settings: for Plant response rating (scale of 0 to 100), Kochia / Kochia plant response rating: Postemergence; for Kochia plant response rating: scale 0 to 100 (0 no effect, 100 complete control); for Plant response rating, Kochia: Preemergence
# Outline: as §1
# [8] = system: morningglory (Ipomoea coccinea); settings: for Plant response rating (scale of 0 to 100), Morningglory / Morningglory plant response rating: Postemergence; for Morningglory plant response rating: scale 0 to 100 (0 no effect, 100 complete control); for Plant response rating, Morningglory: Preemergence
# Outline: as §1
# [9] = system: pigweed (Amaranthus retroflexus); settings: for Plant response rating (scale of 0 to 100), Pigweed / Pigweed plant response rating: Postemergence; for Pigweed plant response rating: scale 0 to 100 (0 no effect, 100 complete control); for Plant response rating, Pigweed: Preemergence
# Outline: as §1
# soybean (Glycine max) = settings: for Plant response rating (scale of 0 to 100), Soybean / Soybean plant response rating: Postemergence; for Soybean plant response rating: scale 0 to 100 (0 no effect, 100 complete control)
# Outline: as §1
# [10] = system: woolly cupgrass (Eriochloa villosa); settings: for Plant response rating (scale of 0 to 100), Cupgrass, Woolly / Cupgrass, Woolly plant response rating: Postemergence; for Cupgrass, Woolly plant response rating: scale 0 to 100 (0 no effect, 100 complete control); for Plant response rating, Cupgrass, Woolly: Preemergence
# Outline: as §1
# [11] = 16 g ai/ha, scale 0 to 100, 0 no effect, 100 complete control
# [12] = 31 g ai/ha, scale 0 to 100, 0 no effect, 100 complete control
# [13] = 62 g ai/ha, scale 0 to 100, 0 no effect, 100 complete control
# [14] = Preemergence, 125 g ai/ha, scale 0 to 100
smiles,measurement,setting,value
COCc1nc(C2CC2)nc(N)c1Br [Compound 11],"Plant response rating (scale of 0 to 100), Surinam Grass",[1]; 16 g ai/ha,0
same,"Plant response rating (scale of 0 to 100), Surinam Grass",[1]; 31 g ai/ha,0
same,Surinam Grass plant response rating,[1]; 62 g ai/ha,0
same,Surinam Grass plant response rating,[1]; 125 g ai/ha,0
same,"Plant response rating, Surinam Grass",[1]; [11],0
same,"Plant response rating, Surinam Grass",[1]; [12],0
same,"Plant response rating, Surinam Grass",[1]; [13],100
same,"Plant response rating, Surinam Grass","[1]; 125 g ai/ha, scale 0 to 100",100
same,"Plant response rating (scale of 0 to 100), Bermudagrass","[2]; Postemergence, 16 g ai/ha",0
same,"Plant response rating (scale of 0 to 100), Bermudagrass","[2]; Postemergence, 31 g ai/ha",0
same,Bermudagrass plant response rating,"[2]; Postemergence, 62 g ai/ha, scale 0 to 100 (0 no effect, 100 complete control)",0
same,"Plant response rating, Bermudagrass","[2]; Postemergence, 125 g ai/ha, scale 0 to 100",0
same,"Plant response rating, Bermudagrass","[2]; Preemergence, 16 g ai/ha, scale 0 to 100, 0 no effect, 100 complete control",0
same,"Plant response rating, Bermudagrass","[2]; Preemergence, 31 g ai/ha, scale 0 to 100, 0 no effect, 100 complete control",0
same,"Plant response rating, Bermudagrass","[2]; Preemergence, 62 g ai/ha, scale 0 to 100, 0 no effect, 100 complete control",0
same,"Plant response rating, Bermudagrass",[2]; [14],0
same,"Plant response rating, Sunflower",[3]; [11],0
same,"Plant response rating, Sunflower",[3]; [12],0
same,"Plant response rating, Sunflower",[3]; [13],0
same,"Plant response rating, Sunflower","[3]; 125 g ai/ha, scale 0 to 100",0
same,"Plant response rating (scale of 0 to 100), Crabgrass",[4]; 16 g ai/ha,0
same,"Plant response rating (scale of 0 to 100), Crabgrass",[4]; 31 g ai/ha,0
same,Crabgrass plant response rating,[4]; 62 g ai/ha,0
same,Crabgrass plant response rating,[4]; 125 g ai/ha,20
same,"Plant response rating, Crabgrass",[4]; [11],0
same,"Plant response rating, Crabgrass",[4]; [12],0
same,"Plant response rating, Crabgrass",[4]; [13],0
same,"Plant response rating, Crabgrass","[4]; 125 g ai/ha, scale 0 to 100",60
same,"Plant response rating (scale of 0 to 100), Foxtail, Giant",[5]; 16 g ai/ha,0
same,"Plant response rating (scale of 0 to 100), Foxtail, Giant",[5]; 31 g ai/ha,0
same,"Foxtail, Giant plant response rating",[5]; 62 g ai/ha,0
same,"Foxtail, Giant plant response rating",[5]; 125 g ai/ha,0
same,"Plant response rating, Foxtail, Giant",[5]; [11],0
same,"Plant response rating, Foxtail, Giant",[5]; [12],0
same,"Plant response rating, Foxtail, Giant",[5]; [13],0
same,"Plant response rating, Foxtail, Giant","[5]; 125 g ai/ha, scale 0 to 100",20
same,"Plant response rating (scale of 0 to 100), Goosegrass",[6]; 16 g ai/ha,0
same,"Plant response rating (scale of 0 to 100), Goosegrass",[6]; 31 g ai/ha,0
same,Goosegrass plant response rating,[6]; 62 g ai/ha,0
same,Goosegrass plant response rating,[6]; 125 g ai/ha,0
same,"Plant response rating, Goosegrass",[6]; [11],0
same,"Plant response rating, Goosegrass",[6]; [12],0
same,"Plant response rating, Goosegrass",[6]; [13],0
same,"Plant response rating, Goosegrass","[6]; 125 g ai/ha, scale 0 to 100",0
same,"Plant response rating (scale of 0 to 100), Johnsongrass",[7]; 16 g ai/ha,0
same,"Plant response rating (scale of 0 to 100), Johnsongrass",[7]; 31 g ai/ha,0
same,Johnsongrass plant response rating,[7]; 62 g ai/ha,0
same,Johnsongrass plant response rating,[7]; 125 g ai/ha,0
same,"Plant response rating, Johnsongrass",[7]; [11],0
same,"Plant response rating, Johnsongrass",[7]; [12],0
same,"Plant response rating, Johnsongrass",[7]; [13],0
same,"Plant response rating, Johnsongrass","[7]; 125 g ai/ha, scale 0 to 100",75
same,"Plant response rating (scale of 0 to 100), Kochia",kochia (Kochia scoparia); 16 g ai/ha,40
same,"Plant response rating (scale of 0 to 100), Kochia",kochia (Kochia scoparia); 31 g ai/ha,65
same,Kochia plant response rating,kochia (Kochia scoparia); 62 g ai/ha,75
same,Kochia plant response rating,kochia (Kochia scoparia); 125 g ai/ha,90
same,"Plant response rating, Kochia",kochia (Kochia scoparia); [11],0
same,"Plant response rating, Kochia",kochia (Kochia scoparia); [12],0
same,"Plant response rating, Kochia",kochia (Kochia scoparia); [13],0
same,"Plant response rating, Kochia","kochia (Kochia scoparia); 125 g ai/ha, scale 0 to 100",60
same,"Plant response rating (scale of 0 to 100), Morningglory",[8]; 16 g ai/ha,0
same,"Plant response rating (scale of 0 to 100), Morningglory",[8]; 31 g ai/ha,0
same,Morningglory plant response rating,[8]; 62 g ai/ha,0
same,Morningglory plant response rating,[8]; 125 g ai/ha,0
same,"Plant response rating, Morningglory",[8]; [11],0
same,"Plant response rating, Morningglory",[8]; [12],0
same,"Plant response rating, Morningglory",[8]; [13],0
same,"Plant response rating, Morningglory","[8]; 125 g ai/ha, scale 0 to 100",0
same,"Plant response rating (scale of 0 to 100), Pigweed",[9]; 16 g ai/ha,60
same,"Plant response rating (scale of 0 to 100), Pigweed",[9]; 31 g ai/ha,70
same,Pigweed plant response rating,[9]; 62 g ai/ha,80
same,Pigweed plant response rating,[9]; 125 g ai/ha,90
same,"Plant response rating, Pigweed",[9]; [11],0
same,"Plant response rating, Pigweed",[9]; [12],0
same,"Plant response rating, Pigweed",[9]; [13],65
same,"Plant response rating, Pigweed","[9]; 125 g ai/ha, scale 0 to 100",90
same,"Plant response rating (scale of 0 to 100), Soybean",soybean (Glycine max); 16 g ai/ha,45
same,"Plant response rating (scale of 0 to 100), Soybean",soybean (Glycine max); 31 g ai/ha,60
same,Soybean plant response rating,soybean (Glycine max); 62 g ai/ha,80
same,Soybean plant response rating,soybean (Glycine max); 125 g ai/ha,95
same,"Plant response rating, Soybean",soybean (Glycine max); [14],55
same,"Plant response rating (scale of 0 to 100), Cupgrass, Woolly",[10]; 16 g ai/ha,0
same,"Plant response rating (scale of 0 to 100), Cupgrass, Woolly",[10]; 31 g ai/ha,0
same,"Cupgrass, Woolly plant response rating",[10]; 62 g ai/ha,0
same,"Cupgrass, Woolly plant response rating",[10]; 125 g ai/ha,0
same,"Plant response rating, Cupgrass, Woolly",[10]; [11],0
same,"Plant response rating, Cupgrass, Woolly",[10]; [12],0
same,"Plant response rating, Cupgrass, Woolly",[10]; [13],0
same,"Plant response rating, Cupgrass, Woolly","[10]; 125 g ai/ha, scale 0 to 100",0
